Key:
Format in all cases: biochemical
CDK2/Cyclin A = CDK2/Cyclin A (Homo sapiens (Human), UniProt P24941); assay: CDK2/Cyclin A kinase assay (Nanosyn, Caliper microfluidic); details: 12-point dose-response, singlicate, at Km for ATP; ATP 50 μM; 3 hr
Procedure: (§1) Selected compounds disclosed herein were tested in kinase assays by Nanosyn (Santa Clara, CA) to determine their inhibitory effect on these CDKs. The assays were performed using microfluidic kinase detection technology (Caliper Assay Platform). The compounds were tested in 12-point dose-response format in singlicate at Km for ATP. Specifics of each assay are as described below:
CDK2/Cyclin A: Enzyme concentration: 0.1 nM; ATP concentration: 50 μM; Incubation time: 3 hr.

CDK2/Cyclin E = CDK2/Cyclin E (Homo sapiens (Human), UniProt P24941); assay: CDK2/Cyclin E kinase assay (Nanosyn, Caliper microfluidic); details: 12-point dose-response, singlicate, at Km for ATP; ATP 100 μM; 3 hr
Procedure: as §1
CDK2/Cyclin E: Enzyme concentration: 0.15 nM; ATP concentration: 100 μM; Incubation time: 3 hr.

CDK4/Cyclin D1 = CDK4/Cyclin D1 (Homo sapiens (Human), UniProt P11802); assay: CDK4/Cyclin D1 kinase assay (Nanosyn, Caliper microfluidic); details: 12-point dose-response, singlicate, at Km for ATP; ATP 200 μM; 3 hr
Procedure: as §1
CDK4/Cyclin D1: Enzyme concentration: 1 nM; ATP concentration: 200 μM; Incubation time: 3 hr.

CDK6/Cyclin D3 = CDK6/Cyclin D3 (Homo sapiens (Human), UniProt Q00534); assay: CDK6/Cyclin D3 kinase assay (Nanosyn, Caliper microfluidic); details: 12-point dose-response, singlicate, at Km for ATP; ATP 300 μM; 3 hr
Procedure: as §1
CDK6/Cyclin D3: Enzyme concentration: 2 nM; ATP concentration: 300 μM; Incubation time: 3 hr.

CDK9/Cyclin T1 = CDK9/Cyclin T1 (Homo sapiens (Human), UniProt P50750); assay: CDK9/Cyclin T1 kinase assay (Nanosyn, Caliper microfluidic); details: 12-point dose-response, singlicate, at Km for ATP; ATP 10 μM; 17 hr
Procedure: as §1
CDK9/Cyclin T1: Enzyme concentration: 5 nM; ATP concentration: 10 μM; Incubation time: 17 hr.

CDK1/Cyclin B1 = CDK1/Cyclin B1 (Homo sapiens (Human), UniProt P06493); assay: CDK1/Cyclin B1 kinase assay (Nanosyn, Caliper microfluidic); details: 12-point dose-response, singlicate, at Km for ATP; ATP 40 μM; 3 hr
Procedure: as §1
CDK1/Cyclin B1: Enzyme concentration: 0.08 nM; ATP concentration: 40 μM; Incubation time: 3 hr.

CDK3-CYCLIN-E = CDK3-CYCLIN-E (Homo sapiens (Human), UniProt Q00526); assay: CDK3-Cyclin-E kinase assay (Nanosyn, Caliper microfluidic); details: 12-point dose-response, singlicate, at Km for ATP
Procedure: as §1, with “ATP.” for “ATP. Specifics of each assay are as described below:”

CDK7 = CDK7 (Homo sapiens (Human), UniProt P50613); assay: CDK7 kinase assay (Nanosyn, Caliper microfluidic); details: 12-point dose-response, singlicate, at Km for ATP
Procedure: as §1, with “ATP.” for “ATP. Specifics of each assay are as described below:”

CDK5-p25 = CDK5-p25 (Homo sapiens (Human), UniProt Q00535); assay: CDK5-p25 kinase assay (Nanosyn, Caliper microfluidic); details: 12-point dose-response, singlicate, at Km for ATP
Procedure: as §1, with “ATP.” for “ATP. Specifics of each assay are as described below:”

Chain of CDK9/Cyclin T1 (P50750 whole entry): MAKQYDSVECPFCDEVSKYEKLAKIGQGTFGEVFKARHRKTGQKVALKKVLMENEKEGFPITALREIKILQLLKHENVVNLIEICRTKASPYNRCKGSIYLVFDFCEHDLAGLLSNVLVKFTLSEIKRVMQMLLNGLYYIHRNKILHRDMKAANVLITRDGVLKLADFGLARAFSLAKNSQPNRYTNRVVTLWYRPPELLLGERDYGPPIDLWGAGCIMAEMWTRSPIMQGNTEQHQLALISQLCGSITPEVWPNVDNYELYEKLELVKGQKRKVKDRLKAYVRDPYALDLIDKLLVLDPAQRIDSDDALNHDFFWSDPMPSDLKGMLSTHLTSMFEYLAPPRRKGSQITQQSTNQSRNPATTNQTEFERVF
Chain of CDK9/Cyclin T1 (O60563 whole entry partner): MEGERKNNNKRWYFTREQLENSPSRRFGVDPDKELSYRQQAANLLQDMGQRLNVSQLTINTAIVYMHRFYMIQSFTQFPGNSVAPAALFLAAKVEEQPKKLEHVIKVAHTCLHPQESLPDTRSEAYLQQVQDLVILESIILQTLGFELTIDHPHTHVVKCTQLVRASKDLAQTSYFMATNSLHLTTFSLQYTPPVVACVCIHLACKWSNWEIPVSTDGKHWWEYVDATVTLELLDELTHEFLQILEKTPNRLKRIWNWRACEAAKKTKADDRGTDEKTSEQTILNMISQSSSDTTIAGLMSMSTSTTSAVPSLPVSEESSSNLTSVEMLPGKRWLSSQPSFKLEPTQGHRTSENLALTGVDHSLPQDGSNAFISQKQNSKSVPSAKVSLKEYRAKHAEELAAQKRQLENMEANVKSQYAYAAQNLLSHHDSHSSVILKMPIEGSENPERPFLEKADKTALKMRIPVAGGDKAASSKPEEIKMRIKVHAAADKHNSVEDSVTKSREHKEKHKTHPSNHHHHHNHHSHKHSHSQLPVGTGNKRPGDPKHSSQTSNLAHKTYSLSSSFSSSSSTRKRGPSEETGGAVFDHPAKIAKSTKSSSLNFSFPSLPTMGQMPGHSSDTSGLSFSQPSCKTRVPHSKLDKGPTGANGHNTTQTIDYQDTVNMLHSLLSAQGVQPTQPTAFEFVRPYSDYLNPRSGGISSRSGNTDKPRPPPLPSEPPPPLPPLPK
Chain of CDK5-p25 (Q00535 whole entry): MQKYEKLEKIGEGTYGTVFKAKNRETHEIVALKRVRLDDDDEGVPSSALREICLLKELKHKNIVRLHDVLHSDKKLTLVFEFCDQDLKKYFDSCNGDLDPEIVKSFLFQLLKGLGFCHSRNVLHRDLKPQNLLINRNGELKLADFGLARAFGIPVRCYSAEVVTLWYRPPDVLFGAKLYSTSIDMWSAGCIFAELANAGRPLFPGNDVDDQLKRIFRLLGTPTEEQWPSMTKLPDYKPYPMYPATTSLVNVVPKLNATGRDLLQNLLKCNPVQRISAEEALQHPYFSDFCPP
Chain of CDK5-p25 (Q15078 99-307 partner): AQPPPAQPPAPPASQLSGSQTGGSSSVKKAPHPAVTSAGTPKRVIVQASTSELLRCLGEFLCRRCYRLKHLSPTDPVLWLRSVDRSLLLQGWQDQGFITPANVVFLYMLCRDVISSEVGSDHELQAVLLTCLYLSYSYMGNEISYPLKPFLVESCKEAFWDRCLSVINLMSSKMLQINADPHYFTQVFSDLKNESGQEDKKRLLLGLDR
Chain of CDK7 (P50613 whole entry): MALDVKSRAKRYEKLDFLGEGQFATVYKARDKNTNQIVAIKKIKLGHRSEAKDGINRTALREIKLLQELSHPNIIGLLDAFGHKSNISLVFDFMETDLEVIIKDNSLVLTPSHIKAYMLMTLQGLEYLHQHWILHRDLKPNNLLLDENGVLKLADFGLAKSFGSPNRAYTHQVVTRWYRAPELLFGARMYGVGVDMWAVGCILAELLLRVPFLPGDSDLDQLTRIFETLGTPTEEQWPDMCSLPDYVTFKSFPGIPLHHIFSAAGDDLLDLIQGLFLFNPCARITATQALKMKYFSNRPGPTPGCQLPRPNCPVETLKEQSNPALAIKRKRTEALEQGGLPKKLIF
Chain of CDK7 (P51946 whole entry partner): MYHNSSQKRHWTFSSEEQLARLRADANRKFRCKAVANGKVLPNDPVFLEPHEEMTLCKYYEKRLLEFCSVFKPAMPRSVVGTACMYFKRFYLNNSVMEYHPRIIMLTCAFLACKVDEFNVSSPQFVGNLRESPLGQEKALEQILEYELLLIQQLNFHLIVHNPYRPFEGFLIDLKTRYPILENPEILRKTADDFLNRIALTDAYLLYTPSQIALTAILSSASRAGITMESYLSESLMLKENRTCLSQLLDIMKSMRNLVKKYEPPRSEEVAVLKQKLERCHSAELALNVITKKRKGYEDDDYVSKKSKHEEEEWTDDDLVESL
Chain of CDK7 (P51948 whole entry partner): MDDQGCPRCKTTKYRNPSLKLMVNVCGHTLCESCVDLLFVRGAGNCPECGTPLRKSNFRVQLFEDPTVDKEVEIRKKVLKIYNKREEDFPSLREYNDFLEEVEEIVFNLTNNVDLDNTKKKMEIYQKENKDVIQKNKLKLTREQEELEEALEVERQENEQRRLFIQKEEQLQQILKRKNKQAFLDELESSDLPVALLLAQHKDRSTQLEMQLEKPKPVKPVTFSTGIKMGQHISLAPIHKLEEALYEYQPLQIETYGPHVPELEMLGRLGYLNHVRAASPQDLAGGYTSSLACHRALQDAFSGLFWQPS
Chain of CDK1/Cyclin B1 (P06493 whole entry): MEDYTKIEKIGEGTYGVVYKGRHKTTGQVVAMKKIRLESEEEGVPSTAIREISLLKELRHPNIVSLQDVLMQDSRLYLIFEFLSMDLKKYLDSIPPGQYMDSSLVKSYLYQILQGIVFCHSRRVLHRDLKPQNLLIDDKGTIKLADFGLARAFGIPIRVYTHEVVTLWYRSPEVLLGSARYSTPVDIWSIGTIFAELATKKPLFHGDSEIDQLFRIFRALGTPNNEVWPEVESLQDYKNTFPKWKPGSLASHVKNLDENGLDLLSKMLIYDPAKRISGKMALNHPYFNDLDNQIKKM
Chain of CDK1/Cyclin B1 (P14635 whole entry partner): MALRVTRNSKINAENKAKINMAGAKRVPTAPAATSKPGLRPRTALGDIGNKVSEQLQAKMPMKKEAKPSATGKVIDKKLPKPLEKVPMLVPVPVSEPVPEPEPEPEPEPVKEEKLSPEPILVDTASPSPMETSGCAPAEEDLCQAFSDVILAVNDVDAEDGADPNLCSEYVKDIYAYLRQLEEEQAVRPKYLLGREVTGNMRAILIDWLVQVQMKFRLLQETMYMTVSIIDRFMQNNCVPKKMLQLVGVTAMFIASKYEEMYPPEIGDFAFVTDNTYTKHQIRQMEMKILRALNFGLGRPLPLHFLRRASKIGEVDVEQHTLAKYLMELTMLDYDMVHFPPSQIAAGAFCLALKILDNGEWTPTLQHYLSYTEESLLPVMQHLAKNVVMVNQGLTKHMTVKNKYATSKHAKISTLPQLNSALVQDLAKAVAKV
Chain of CDK6/Cyclin D3 (Q00534 whole entry): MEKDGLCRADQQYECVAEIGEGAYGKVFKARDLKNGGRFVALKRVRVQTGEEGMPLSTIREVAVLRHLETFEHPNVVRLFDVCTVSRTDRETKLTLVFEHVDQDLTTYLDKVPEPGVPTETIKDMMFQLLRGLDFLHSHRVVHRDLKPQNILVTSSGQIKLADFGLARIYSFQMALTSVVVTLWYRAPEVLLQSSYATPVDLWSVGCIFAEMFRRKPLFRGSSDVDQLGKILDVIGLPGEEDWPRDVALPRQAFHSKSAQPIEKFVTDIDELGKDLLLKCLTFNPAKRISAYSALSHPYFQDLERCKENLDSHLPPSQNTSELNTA
Chain of CDK6/Cyclin D3 (P30281 whole entry partner): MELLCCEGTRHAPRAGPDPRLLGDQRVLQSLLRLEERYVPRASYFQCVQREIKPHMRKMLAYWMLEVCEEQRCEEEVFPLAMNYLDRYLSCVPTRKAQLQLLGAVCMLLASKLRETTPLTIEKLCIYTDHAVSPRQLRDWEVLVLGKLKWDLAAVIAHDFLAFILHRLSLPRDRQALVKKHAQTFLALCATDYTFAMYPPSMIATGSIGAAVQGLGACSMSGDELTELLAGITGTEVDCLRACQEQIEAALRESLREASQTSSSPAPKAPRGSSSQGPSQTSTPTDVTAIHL
Chain of CDK4/Cyclin D1 (P11802 whole entry): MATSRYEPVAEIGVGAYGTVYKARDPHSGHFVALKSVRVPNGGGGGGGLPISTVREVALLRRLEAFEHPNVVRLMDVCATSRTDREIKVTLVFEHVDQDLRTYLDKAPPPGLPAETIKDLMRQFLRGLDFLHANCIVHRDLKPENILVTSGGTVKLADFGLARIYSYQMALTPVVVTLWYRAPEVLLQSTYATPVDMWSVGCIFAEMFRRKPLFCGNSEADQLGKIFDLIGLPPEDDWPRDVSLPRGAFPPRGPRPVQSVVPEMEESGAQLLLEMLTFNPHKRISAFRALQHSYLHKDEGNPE
Chain of CDK4/Cyclin D1 (P24385 whole entry partner): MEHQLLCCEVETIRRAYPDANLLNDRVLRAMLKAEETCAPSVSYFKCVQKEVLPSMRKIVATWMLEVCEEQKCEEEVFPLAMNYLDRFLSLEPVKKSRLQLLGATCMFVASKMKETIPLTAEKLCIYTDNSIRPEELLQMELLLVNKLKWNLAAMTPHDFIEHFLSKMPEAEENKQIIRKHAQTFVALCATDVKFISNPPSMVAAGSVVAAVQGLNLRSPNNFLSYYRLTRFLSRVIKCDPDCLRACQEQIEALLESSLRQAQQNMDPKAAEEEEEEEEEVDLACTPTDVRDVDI

Compound	IC50 (CDK2/Cyclin A)	IC50 (CDK2/Cyclin E)	IC50 (CDK4/Cyclin D1)	IC50 (CDK6/Cyclin D3)	IC50 (CDK9/Cyclin T1)	IC50 (CDK1/Cyclin B1)	IC50 (CDK3-CYCLIN-E)	IC50 (CDK7)	IC50 (CDK5-p25)
CN1CCN(S(=O)(=O)c2ccc(Nc3ncc4cc5n(c4n3)C3(CCCCC3)CC(=O)N5)cc2)CC1 [Compound 51, 2′-((4-((4-methylpiperazin-1-yl)sulfonyl)phenyl)amino)-6′H-spiro[cyclohexane-1,9′-pyrrolo[1,5-a:2,3-d′]dipyrimidin]-7′(8′H)-one]	4 nM	5 nM	41 nM	63 nM	5 nM	31 nM	23 nM	66 nM	
NS(=O)(=O)c1ccc(Nc2ncc3cc4n(c3n2)C2(CCCCC2)C(=O)NC4O)cc1 (centres unmarked) [Compound 1, 4-((6′-hydroxy-8′-oxo-7′,8′-dihydro-6′H-spiro[cyclohexane-1,9′-pyrazino[1′,2′:1,5]pyrrolo[2,3-d]pyrimidin]-2'-yl)amino)benzenesulfonamide]	0.16 nM	0.34 nM	3.1 nM	7.5 nM	1.4 nM	2.2 nM	0.94 nM	560 nM	0.8 nM
NS(=O)(=O)c1ccc(Nc2ncc3cc4n(c3n2)C2(CCCCC2)CC(=O)N4)cc1 [Compound 2, 4-((7′-oxo-7′,8′-dihydro-6′H-spiro[cyclohexane-1,9′-pyrrolo[1,5-a:2,3-d′]dipyrimidin]-2′-yl)amino)benzenesulfonamide]	0.4 nM	0.5 nM	41 nM	98 nM	4.5 nM	3.7 nM	2.8 nM	200 nM	1.3 nM
NS(=O)(=O)c1ccc(Nc2ncc3cc4n(c3n2)C2(CCCCC2)C(=O)NN4)cc1 [Compound 3, 4-((3′-oxo-2′,3′-dihydro-1′H-spiro[cyclohexane-1,4′-pyrimido[5′,4′:4,5]pyrrolo[2,1-c][1,2,4]triazin]-7′-yl)amino)benzenesulfonamide]	2.5 nM	0.56 nM	130 nM	350 nM	62 nM	33 nM	9.9 nM	> 1000 nM	14 nM
CC1C(=O)Nc2cc3cnc(Nc4ccc(S(=O)(=O)N5CCN(C)CC5)cc4)nc3n2C12CCCCC2 (centres unmarked) [Compound 59, 8′-methyl-2′-((4-((4-methylpiperazin-1-yl)sulfonyl)phenyl)amino)-6′H-spiro[cyclohexane-1,9′-pyrrolo[1,5-a:2,3-d′]dipyrimidin]-7′(8′H)-one]	5 nM	3 nM	137 nM	123 nM	5 nM	42 nM	57 nM	16 nM	
C[C@@H]1NC(=O)C2(CCCCC2)n2c1cc1cnc(Nc3ccc(S(N)(=O)=O)cc3)nc12 [Compound 19, (S)-4-((6′-methyl-8′-oxo-7′,8′-dihydro-6′H-spiro[cyclohexane-1,9′-pyrazino[1′,2′:1,5]pyrrolo[2,3-d]pyrimidin]-2′-yl)amino)benzenesulfonamide]	4.3 nM	4.8 nM	40 nM	210 nM	22 nM	40 nM	34 nM	800 nM	62 nM

Results, then the compound that gave them:

IC50 (CDK2/Cyclin A)	IC50 (CDK2/Cyclin E)	IC50 (CDK4/Cyclin D1)	IC50 (CDK6/Cyclin D3)	IC50 (CDK9/Cyclin T1)	IC50 (CDK1/Cyclin B1)	IC50 (CDK3-CYCLIN-E)	IC50 (CDK7)	IC50 (CDK5-p25)	Compound
1 nM	1 nM	53 nM	170 nM	11 nM	89 nM	5 nM	230 nM		NS(=O)(=O)c1ccc(Nc2ncc3cc4n(c3n2)C2(C=NN4)CCCCC2)cc1 [Compound 4, 4-((1′H-spiro[cyclohexane-1,4′-pyrimido[5′,4′:4,5]pyrrolo[2,1-c][1,2,4]triazin]-7′-yl)amino)benzenesulfonamide]
9.2 nM	13 nM	28 nM	160 nM	180 nM	88 nM	59 nM	> 1000 nM	140 nM	CN1NC(=O)C2(CCCCC2)n2c1cc1cnc(Nc3ccc(S(N)(=O)=O)cc3)nc12 [Compound 12, 4-((1′-methyl-3′-oxo-2′,3′-dihydro-1′H-spiro[cyclohexane-1,4′-pyrimido[5′,4′:4,5]pyrrolo[2,1-c][1,2,4]triazin]-7′-yl)amino)benzenesulfonamide]
2 nM	2 nM	22 nM	83 nM	9 nM	14 nM	13 nM	723 nM		CC1=NN(C)c2cc3cnc(Nc4ccc(S(N)(=O)=O)cc4)nc3n2C12CCCCC2 [Compound 46, 4-((1′,3′-dimethyl-1′H-spiro[cyclohexane-1,4′-pyrimido[5′,4′:4,5]pyrrolo[2,1-c][1,2,4]triazin]-7′-yl)amino)benzenesulfonamide]
29 nM	8 nM	60 nM	137 nM	653 nM	258 nM	106 nM	> 1000 nM		O=C(c1ccc(Nc2ncc3cc4n(c3n2)C2(CCCCC2)C(=O)NN4)cc1)N1CCOCC1 [Compound 74, 7′-((4-(morpholine-4-carbonyl)phenyl)amino)-1′,2′-dihydro-3′H-spiro[cyclohexane-1,4′-pyrimido[5′,4′:4,5]pyrrolo[2,1-c][1,2,4]triazin]-3′-one]
2 nM	1 nM	3 nM	7 nM	7 nM	12 nM	8 nM	144 nM		CN1CCN(C(=O)c2ccc(Nc3ncc4cc5n(c4n3)C3(CCCCC3)CC(=O)N5)cc2)CC1 [Compound 54, 2′-((4-(4-methylpiperazine-1-carbonyl)phenyl)amino)-6′H-spiro[cyclohexane-1,9′-pyrrolo[1,5-a:2,3-d′]dipyrimidin]-7′(8′H)-one]
45 nM	10 nM	253 nM	480 nM	199 nM	478 nM	115 nM	242 nM		CN1CCN(S(=O)(=O)c2ccc(Nc3ncc4cc5n(c4n3)C3(CCCCC3)C(=O)NN5)cc2)CC1 [Compound 49, 7′-((4-((4-methylpiperazin-1-yl)sulfonyl)phenyl)amino)-1′,2′-dihydro-3′H-spiro[cyclohexane-1,4′-pyrimido[5′,4′:4,5]pyrrolo[2,1-c][1,2,4]triazin]-3′-one]
17 nM	4 nM	17 nM	40 nM	190 nM	133 nM	58 nM	> 1000 nM		O=C(c1ccc(Nc2ncc3cc4n(c3n2)C2(CCCCC2)C(=O)NN4)cc1)N1CCNCC1 [Compound 61, 7′-((4-(piperazine-1-carbonyl)phenyl)amino)-1′,2′-dihydro-3′H-spiro[cyclohexane-1,4′-pyrimido[5′,4′:4,5]pyrrolo[2,1-c][1,2,4]triazin]-3′-one]
1 nM	1 nM	19 nM	45 nM	11 nM	20 nM	6 nM	682 nM		NS(=O)(=O)c1ccc(Nc2ncc3cc4n(c3n2)C2(CCCCC2)C(=O)N[C@@H]4CF)cc1 [Compound 23, (S)-4-((6′-(fluoromethyl)-8′-oxo-7′,8′-dihydro-6′H-spiro[cyclohexane-1,9′-pyrazino[1′2′:1,5]pyrrolo[2,3-d]pyrimidin]-2′-yl)amino)benzenesulfonamide]
85 nM	23 nM	132 nM	417 nM	85 nM	505 nM	105 nM	> 1000 nM		CNC(=O)c1ccc(Nc2ncc3cc4n(c3n2)C2(CCCCC2)C(=O)NN4)cc1 [Compound 64, N-methyl-4-((3′-oxo-2′,3′-dihydro-1′H-spiro[cyclohexane-1,4′-pyrimido[5′,4′:4,5]pyrrolo[2,1-c][1,2,4]triazin]-7′-yl)amino)benzamide]
